In US5093519A, “Vitamin D derivatives: therapeutic applications and applications to assays of metabolities of vitamin D” (priority 1988, dated 1992):
Like-named read-outs stand apart in the source and are kept apart here. Values belong to the compound of their own block, whether it stands above or below them.

Tests used:
[1] = target: T1, intracellular receptor for vitamin D (Rattus norvegicus, UniProt P13053); assay: Binding to the intracellular receptor for vitamin D, displacement of [^3 H]-1,25-(OH)2 -vitamin D3 (rat duodenum); settings: in words
T1 construct: from tissue; host or cells: rat duodenum
T1 sequence (P13053 1-423): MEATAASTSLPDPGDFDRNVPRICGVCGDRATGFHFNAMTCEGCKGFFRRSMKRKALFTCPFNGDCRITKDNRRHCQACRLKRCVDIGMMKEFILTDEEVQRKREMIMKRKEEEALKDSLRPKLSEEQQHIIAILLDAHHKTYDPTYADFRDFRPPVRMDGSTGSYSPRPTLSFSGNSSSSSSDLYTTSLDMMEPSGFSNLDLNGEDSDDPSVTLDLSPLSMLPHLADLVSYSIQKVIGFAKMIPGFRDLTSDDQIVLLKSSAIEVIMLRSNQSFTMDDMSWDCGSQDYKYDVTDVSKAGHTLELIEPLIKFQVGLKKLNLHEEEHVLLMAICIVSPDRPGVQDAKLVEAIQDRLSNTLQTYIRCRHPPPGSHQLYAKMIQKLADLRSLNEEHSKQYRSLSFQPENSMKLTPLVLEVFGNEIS
Description: Binding of 1,25-(OH)2 -vitamin D and two C^11 -derivatives to the intracellular receptor for vitamin D, measured by displacement of the binding of the tracer ]^3 H]-1,25-(OH)2 -vitamin D3.
The affinity, however, is approximately 100- to 200-fold lower than that of 1,25-(OH)2 -vitamin D3. This experiment is reproducible with receptors of different origins (rat duodenum in the example illustrated, but also calf thymus, human lymphocytes, and the like).
(§1) Bibliographic References 21, 22 and 23 served as references for the methodology of the tests of binding to DBP and to the receptor, and of the test of inhibition of lymphocyte proliferation.

[2] = tested on: HL 60 cells; assay: Differentiation of HL 60 leukemic cells in vitro; format: cell-based; settings: in words
Description: This is, in effect, directly confirmed in various biological tests (induction of the differentiation HL 60 leukemic cells, inhibition of lymphocyte proliferation, modification of the proliferation of cancer cells, calciotropic effect, and the like). FIGS. (3-4) illustrate the effect of different analogs on the differentiation of HL 60 leukemic cells.

[3] = tested on: human lymphocytes; assay: Inhibition of proliferation of PHA-stimulated human lymphocytes; format: cell-based; settings: for antagonist effect in lymphocyte proliferation test: 10^-10 M derivative added to 1,25-(OH)2 -vitamin D3; for inhibition of lymphocyte proliferation (in words): compound alone; for inhibition of lymphocyte proliferation, less active than 1,25-(OH)2 -vitamin D3: fold less active than 1,25-(OH)2 -vitamin D3
Description: For example, if the proliferative response of human lymphocytes stimulated with PHA is 100 in the absence of vitamin D3, it is reduced to 66.5 in the presence of 10^-11 M 1,25-(OH)2 -vitamin D3 (Table 1). In the same test, the addition of 11-(2-hydroxyethyl)-1,25-(OH)2 -D3 induces no inhibition at 10^-10 M (102.6).
as §1

[4] = target: T2, purified human DBP (Homo sapiens, UniProt P02774); assay: Binding to purified human DBP, displacement of [^3 H]-25-OH-vitamin D3; settings: in words; FIG. 1
T2 construct: displacement of [3H]-25-OH-vitamin D3
T2 sequence (P02774 17-474): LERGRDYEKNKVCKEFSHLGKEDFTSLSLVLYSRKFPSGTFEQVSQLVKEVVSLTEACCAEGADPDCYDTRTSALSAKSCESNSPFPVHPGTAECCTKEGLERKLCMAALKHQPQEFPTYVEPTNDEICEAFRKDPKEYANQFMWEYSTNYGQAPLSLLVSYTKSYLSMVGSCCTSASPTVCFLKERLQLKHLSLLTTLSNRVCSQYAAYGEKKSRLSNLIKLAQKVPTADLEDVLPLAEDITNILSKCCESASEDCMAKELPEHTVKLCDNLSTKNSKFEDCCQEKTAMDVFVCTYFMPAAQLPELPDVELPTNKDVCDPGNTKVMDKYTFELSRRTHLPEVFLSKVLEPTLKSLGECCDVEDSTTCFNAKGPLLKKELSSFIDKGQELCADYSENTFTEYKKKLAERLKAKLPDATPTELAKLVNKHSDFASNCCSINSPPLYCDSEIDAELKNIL
Description: Binding to purified human DBP of 25-OH-vitamin D3, 1,25-(OH)2 -vitamin D3 and some C^11 -derivatives of these molecules, measured by displacement of the binding of the tracer [^3 H]-25-OH-vitamin D3.
This affinity is not modified with an 11-hydroxyethyl derivative. […] This property has been turned to good account for obtaining analogs which can be iodinated via their branch at C^11, and these derivatives have been used successfully, for example, for developing the first specific assay for 25-OH-vitamin D3 using an iodinated tracer.
as §1

[5] = tested on: intracellular receptor of vitamin D; settings: background knowledge; cited from earlier work
[6] = tested on: vitamin D-binding protein (DBP); settings: background knowledge, cited from earlier work
[7] = background knowledge, cited from earlier work

Structure (SMILES): C=C1/C(=C\C=C2/C[C@H](c3ccccc3)C[C@]3(C)[C@@H]([C@H](C)CCCC(C)(C)O)CC[C@@H]23)C[C@@H](O)C[C@@H]1O [compound 48, 1α,25-(OH)2-11α-phenylvitamin D3]
binding to the vitamin D3 receptor ([1]; FIG. 2): binds the receptor better than the 11α-hydroxyethyl derivatives
biological activity in a test of differentiation of HL 60 cells ([2]; FIGS. 3-4, listed as 11α-phenyl-1,25-(OH)2 -vitamin D3): active
biological activity in a test of differentiation of HL 60 cells ([2]; FIGS. 3-4, listed as phenyl derivative): moderately active

binding to the vitamin D3 receptor ([1]; FIG. 2, listed as 11α-(hydroxyethyl)): bind the vitamin D3 receptor
binding to the vitamin D3 receptor ([1]; FIG. 2, listed as 11α-(hydroxyethyl)-1,25-(OH)2 -vitamin D3): comparable
binding to purified human DBP [4]: not modified
Structure (SMILES): C=C1/C(=C\C=C2/C[C@H](CCO)C[C@]3(C)[C@@H]([C@H](C)CCCC(C)(C)O)CC[C@@H]23)C[C@@H](O)C[C@@H]1O [compound 49, 11α-(2-OH-ethyl)-1,25-(OH)2-vitamin D3]
antagonist effect in lymphocyte proliferation test ([3]; listed as 11-(2-hydroxyethyl)-1,25-(OH)2 -D3): antagonizes its inhibitory effect
antagonist effect in lymphocyte proliferation test ([3]; listed as 11-(OH-ethyl) derivative): behaves as a partial antagonist of vitamin D3
lymphocyte proliferation ([3]; 11-(2-OH-Ethyl) derivative 10^-10 M + 1,25-(OH)2 -vitamin D3 10^-11 M, 0.0001 µM): 91.8%
lymphocyte proliferation ([3]; 11-(2-OH-Ethyl) derivative 10^-10 M + 1,25-(OH)2 -vitamin D3 10^-12 M, 0.0001 µM): 98.5%
activity at 0.0001 µM ([3]; Homo sapiens, Lymphocyte, 10^-10 M alone, response is 100 in the absence of vitamin D3, read-out: proliferative response of lymphocytes): 103%
inhibition of lymphocyte proliferation (in words) [3]: no inhibition
inhibition of lymphocyte proliferation, less active than 1,25-(OH)2 -vitamin D3 [3]: 100 fold
biological activity in a test of differentiation of HL 60 cells ([2]; FIGS. 3-4): of low activity

Structure (SMILES): C=C1CCC(O)CC1=CC=C1CC(CCO)CC2(C)C1CCC2C(C)CCCC(C)(C)O (centres unmarked) [compound 56, 11-(2-hydroxyethyl)-25-OH-vitamin D3]
biological activity in a test of differentiation of HL 60 cells ([2]; FIGS. 3-4): of low activity

binding to the vitamin D3 receptor ([1]; FIG. 2): bind the vitamin D3 receptor
Structure (SMILES): C=C1/C(=C\C=C2/C[C@H](CCOC(=O)CCC(=O)O)C[C@]3(C)[C@@H]([C@H](C)CCCC(C)(C)O)CC[C@@H]23)C[C@@H](O)C[C@@H]1O [11β-(2-hemisuccinoyloxyethyl)]

binding to the vitamin D3 receptor ([1]; FIG. 2, listed as 11α-(2-hemisuccinoyloxyethyl vitamin D3)): comparable
Structure (SMILES): C=C1/C(=C\C=C2/C[C@H](CCOC(=O)CCC(=O)O)C[C@]3(C)[C@@H]([C@H](C)CCCC(C)(C)O)CC[C@@H]23)C[C@@H](O)C[C@@H]1O [compound 50, 11α-(2-HS-ethyl)-1,25-(OH)2-vitamin D3]
inhibition of lymphocyte proliferation, less active than 1,25-(OH)2 -vitamin D3 [3]: approximately 1000 fold

Structure (SMILES): C=C1CC[C@H](O)C/C1=C/C=C1\CCC[C@]2(C)[C@@H]([C@H](C)CCCC(C)(C)O)CC[C@@H]12 [25-OH-vitamin D3]
biological activity in a test of differentiation of HL 60 cells ([2]; FIGS. 3-4): of low activity
affinity for the intracellular receptor of vitamin D [5]: low affinity
affinity for DBP [6]: high affinity

Structure (SMILES): C=C1CC[C@H](O)C/C1=C/C=C1\C[C@H](CCOC(=O)CCC(=O)O)C[C@]2(C)[C@@H]([C@H](C)CCCC(C)(C)O)CC[C@@H]12 [compound 57, 11-(2-HS-ethyl)-25-OH-vitamin D3]
binding to purified human DBP [4]: does not necessarily modify this affinity substantially

Structure (SMILES): C=C1/C(=C\C=C2/C[C@H](C)C[C@]3(C)[C@@H]([C@H](C)CCCC(C)(C)O)CC[C@@H]23)C[C@@H](O)C[C@@H]1O [compound 47, 1α,25-(OH)2-11α-methylvitamin D3]
binding to the vitamin D3 receptor ([1]; FIG. 2): affinity comparable to unsubstituted 1,25-(OH)2 -vitamin D3
biological activity in a test of differentiation of HL 60 cells ([2]; FIGS. 3-4, listed as 11α-methyl-1,25-(OH)2 -vitamin D3): strong activity, approaching that of 1,25-(OH)2 -vitamin D3
biological activity in a test of differentiation of HL 60 cells ([2]; FIGS. 3-4, listed as methyl derivative): very active

Structure (SMILES): C=C1/C(=C\C=C2/CCC[C@]3(C)[C@@H]([C@H](C)CCCC(C)(C)O)CC[C@@H]23)C[C@@H](O)C[C@@H]1O [1,25-(OH)2-vitamin D3]
lymphocyte proliferation ([3]; 1,25-(OH)2 -vitamin D3 10^-11 M alone, 100% in absence of vitamin D3, 1e-05 µM): 66.5%
lymphocyte proliferation ([3]; 1,25-(OH)2 -vitamin D3 10^-12 M alone, 100% in absence of vitamin D3, 1e-06 µM): 93.8%
inhibition of lymphocyte proliferation (in words) [3]: marked inhibition of proliferation
half-life [7]: short half-life
therapeutic index ([7]; listed as 1,25-(OH)2)-vitamin D): very narrow therapeutic index
therapeutic index ([7]; listed as 1,25-(OH)2 -Vitamin D): narrow
biological activity in a test of differentiation of HL 60 cells ([2]; FIGS. 3-4): active
affinity for the intracellular receptor of vitamin D [5]: high affinity
affinity for DBP [6]: lower affinity
affinity for DBP ([6]; listed as 1α,25-(OH)2 -vitamin D): low affinity
